The values that follow are results of earlier work, collected in patent US8815303B2, “Multifunctional compositions having combined insecticidal, miticidal and fungicidal activity” (priority 2004, dated 2014).

Like-named read-outs stand apart in the source and are kept apart here.

Data set [1] concerns rose powdery mildew. The conditions noted are these: intact plants, after one adaxial foliar spray application.
In data set [2] the test system is powdery mildew and/or blackspot. The conditions noted are these: for management of powdery mildew and/or blackspot: weekly sprays of 0.5% (w/w) aqueous solution.
The mark [3] stands for this setting: 0.5% concentration (the more effective dose).

For the molecule `O=C([O-])O.[K+]` [potassium bicarbonate], the host epidermal layers result in data set [1] is “recover completely from infection”. Besides, the superficial pathogen structures entry in data set [1] is listed as “eradicated”. Also, the powdery mildew severity entry in data set [2] (0.25% concentration) and in data set [2] (setting [3]) was “significantly reduce” throughout. Also, the “management of powdery mildew and/or blackspot” value in data set [2] is reported as “significantly managed”.

As to `O=C([O-])O.[Na+]` [sodium bicarbonate], the powdery mildew severity result in data set [2] (0.25% concentration) and in data set [2] (setting [3]) was “significantly reduce” in each case. Also, the “management of powdery mildew and/or blackspot” value in data set [2] is given as “significantly managed”.
